# Data from ChEMBL document CHEMBL1151360, “Antibiotic principle of Eupatorium capillifolium” (1981).
# Activity calls are given as the source filed them. No cut-off for these calls is given here.
# Legend:
# Bacillus subtilis [1] = assay: Antibacterial activity against Bacillus subtilis ATCC 6633 at 60 ug/mL in synthetic medium by disc-plate assay; format: functional; settings: read-out: IZ
# Bacillus subtilis [2] = assay: Antibacterial activity against Bacillus subtilis ATCC 6633 at 750 ug/mL in synthetic medium by disc-plate assay in presence of 750 ug/mL glutamic acid; format: functional
# Escherichia coli [3] = assay: Antibacterial activity against Escherichia coli ATCC 10536 in synthetic medium by disc-plate assay; format: functional, organism-based
# Bacillus subtilis [4] = assay: Antibacterial activity against Bacillus subtilis ATCC 6633 at 15 ug/mL in synthetic medium by disc-plate assay; format: functional; settings: read-out: IZ
# Bacillus subtilis [5] = assay: Antibacterial activity against Bacillus subtilis ATCC 6633 at 750 ug/mL in synthetic medium by disc-plate assay in presence of 60 ug/mL glutamic acid; format: functional
# Bacillus subtilis [6] = assay: Antibacterial activity against Bacillus subtilis ATCC 6633 at 750 ug/mL in synthetic medium by disc-plate assay in presence of 250 ug/mL glutamic acid; format: functional
# Bacillus subtilis [7] = assay: Antibacterial activity against Bacillus subtilis ATCC 6633 at 750 ug/mL in synthetic medium by disc-plate assay in presence of 5000 ug/mL glutamic acid; format: functional
# Bacillus subtilis [8] = assay: Antibacterial activity against Bacillus subtilis ATCC 6633 at 750 ug/mL in complex natural medium by disc-plate assay; format: functional, organism-based
# Bacillus subtilis [9] = assay: Antibacterial activity against Bacillus subtilis ATCC 6633 at 750 ug/mL in synthetic medium by disc-plate assay in presence of 500 ug/mL glutamic acid; format: functional
# Escherichia coli [10] = assay: Antibacterial activity against Escherichia coli ATCC 10536 in complex natural medium by disc-plate assay; format: functional, organism-based
# Bacillus subtilis [11] = assay: Antibacterial activity against Bacillus subtilis ATCC 6633 at 750 ug/mL in synthetic medium by disc-plate assay in presence of 3000 ug/mL glutamic acid; format: functional
# Bacillus subtilis [12] = assay: Antibacterial activity against Bacillus subtilis ATCC 6633 at 750 ug/mL in synthetic medium by disc-plate assay in presence of 10 ug/mL glutamic acid; format: functional
# Bacillus subtilis [13] = assay: Antibacterial activity against Bacillus subtilis ATCC 6633 at 750 ug/mL in synthetic medium by disc-plate assay in presence of 30 ug/mL glutamic acid; format: functional
# Bacillus subtilis [14] = assay: Antibacterial activity against Bacillus subtilis ATCC 6633 at 30 ug/mL in synthetic medium by disc-plate assay; format: functional; settings: read-out: IZ
# Staphylococcus aureus = assay: Antibacterial activity against Staphylococcus aureus ATCC 6538P in complex natural medium by disc-plate assay; format: functional, organism-based
# Bacillus subtilis [15] = assay: Antibacterial activity against Bacillus subtilis ATCC 6633 at 250 ug/mL in synthetic medium by disc-plate assay; format: functional; settings: read-out: IZ
# Bacillus subtilis [16] = assay: Antibacterial activity against Bacillus subtilis ATCC 6633 at 120 ug/mL in synthetic medium by disc-plate assay; format: functional; settings: read-out: IZ
# Bacillus subtilis [17] = assay: Antibacterial activity against Bacillus subtilis ATCC 6633 at 500 ug/mL in synthetic medium by disc-plate assay; format: functional; settings: read-out: IZ
# Bacillus subtilis [18] = assay: Antibacterial activity against Bacillus subtilis ATCC 6633 at 750 ug/mL in synthetic medium by disc-plate assay in presence of 1000 ug/mL glutamic acid; format: functional
# Bacillus subtilis [19] = assay: Antibacterial activity against Bacillus subtilis ATCC 6633 at 750 ug/mL in synthetic medium by disc-plate assay in presence of 120 ug/mL glutamic acid; format: functional
# Bacillus subtilis [20] = assay: Antibacterial activity against Bacillus subtilis ATCC 6633 at 750 ug/mL in synthetic medium by disc-plate assay; format: functional; settings: read-out: IZ
smiles,measurement,setting,value
C=C(C(=O)O)[C@@H]1CC[C@@]2(C)CCCC(=C)[C@@H]2C1 [COSTIC ACID],zone of inhibition at 60 µg/mL,Bacillus subtilis [1],16.5 mm
same,inhibition at 750 µg/mL,Bacillus subtilis [2],85%
same,zone of inhibition at 750 µg/mL,Bacillus subtilis [2]; read-out: IZ,19 mm
same,Activity,Escherichia coli [3],inactive
same,zone of inhibition at 15 µg/mL,Bacillus subtilis [4],0 mm
same,inhibition (INH),Bacillus subtilis [5],60%
same,inhibition zone (IZ),Bacillus subtilis [5],22.5 mm
same,inhibition (INH),Bacillus subtilis [6],74%
same,inhibition zone (IZ),Bacillus subtilis [6],21 mm
same,inhibition (INH),Bacillus subtilis [7],89%
same,inhibition zone (IZ),Bacillus subtilis [7],18 mm
same,Activity,Bacillus subtilis [8],inactive
same,inhibition (INH),Bacillus subtilis [9],80%
same,inhibition zone (IZ),Bacillus subtilis [9],20 mm
same,Activity,Escherichia coli [10],inactive
same,inhibition (INH),Bacillus subtilis [11],89%
same,inhibition zone (IZ),Bacillus subtilis [11],18 mm
same,inhibition (INH),Bacillus subtilis [12],0%
same,inhibition zone (IZ),Bacillus subtilis [12],26 mm
same,inhibition (INH),Bacillus subtilis [13],40%
same,inhibition zone (IZ),Bacillus subtilis [13],24 mm
same,zone of inhibition at 30 µg/mL,Bacillus subtilis [14],14.5 mm
same,Activity,Staphylococcus aureus,inactive
same,zone of inhibition at 250 µg/mL,Bacillus subtilis [15],22 mm
same,zone of inhibition at 120 µg/mL,Bacillus subtilis [16],19 mm
same,zone of inhibition at 500 µg/mL,Bacillus subtilis [17],24 mm
same,inhibition (INH),Bacillus subtilis [18],89%
same,inhibition zone (IZ),Bacillus subtilis [18],18 mm
same,inhibition (INH),Bacillus subtilis [19],74%
same,inhibition zone (IZ),Bacillus subtilis [19],21 mm
same,zone of inhibition at 750 µg/mL,Bacillus subtilis [20],26 mm
